From PubChem BioAssay (NCI)
Values joined by “and” are separate entries in the source; they are usually repeats but may differ in a detail not shown here. Equal entries are not always repeated.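 Protocol summary: plate cells (96-well), add compound at 5 concentrations, incubate 48 h, interpolate endpoints linearly. GI50: concentration for 50% inhibition of growth. TGI is the concentration that stops growth completely.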

Key:
Experiment in all cases: NCI anticancer screen, dose series, 48 h
OVCAR-3 ovarian = tested on: OVCAR-3 ovarian
SF-268 CNS = tested on: SF-268 CNS
A549 NSCLC = tested on: A549 NSCLC
CAKI-1 renal = tested on: CAKI-1 renal
HOP-92 NSCLC = tested on: HOP-92 NSCLC
SK-MEL-28 melanoma = tested on: SK-MEL-28 melanoma
IGROV1 ovarian = tested on: IGROV1 ovarian
HCC-2998 colon = tested on: HCC-2998 colon
LOX IMVI melanoma = tested on: LOX IMVI melanoma
M14 melanoma = tested on: M14 melanoma
SK-MEL-2 melanoma = tested on: SK-MEL-2 melanoma
TK-10 renal = tested on: TK-10 renal
SF-539 CNS = tested on: SF-539 CNS
NCI-H522 lung = tested on: NCI-H522 lung
786-0 renal = tested on: 786-0 renal
RXF 393 renal = tested on: RXF 393 renal
NCI/ADR-RES ovarian = tested on: NCI/ADR-RES ovarian
SN12C renal = tested on: SN12C renal
SR leukemia = tested on: SR leukemia
CCRF-CEM leukemia = tested on: CCRF-CEM leukemia
MDA-MB-435 = tested on: MDA-MB-435
SW-620 colon = tested on: SW-620 colon
DU-145 prostate = tested on: DU-145 prostate
COLO 205 colon = tested on: COLO 205 colon
OVCAR-5 ovarian = tested on: OVCAR-5 ovarian
HT29 colon = tested on: HT29 colon
UO-31 renal = tested on: UO-31 renal
MDA-N = tested on: MDA-N
NCI-H23 lung = tested on: NCI-H23 lung
MOLT-4 leukemia = tested on: MOLT-4 leukemia
KM12 colon = tested on: KM12 colon
MDA-MB-231 breast = tested on: MDA-MB-231 breast
BT-549 breast = tested on: BT-549 breast
NCI-H460 lung = tested on: NCI-H460 lung
T-47D breast = tested on: T-47D breast
SF-295 CNS = tested on: SF-295 CNS
OVCAR-4 ovarian = tested on: OVCAR-4 ovarian
HL-60(TB) leukemia = tested on: HL-60(TB) leukemia
UACC-62 melanoma = tested on: UACC-62 melanoma
A498 renal = tested on: A498 renal
PC-3 prostate = tested on: PC-3 prostate
SK-OV-3 ovarian = tested on: SK-OV-3 ovarian
MALME-3M melanoma = tested on: MALME-3M melanoma
ACHN renal = tested on: ACHN renal
K-562 leukemia = tested on: K-562 leukemia
OVCAR-8 ovarian = tested on: OVCAR-8 ovarian
SK-MEL-5 melanoma = tested on: SK-MEL-5 melanoma
NCI-H226 lung = tested on: NCI-H226 lung
HCT-116 colon = tested on: HCT-116 colon
SNB-19 CNS = tested on: SNB-19 CNS
MCF7 breast = tested on: MCF7 breast
HOP-62 NSCLC = tested on: HOP-62 NSCLC
EKVX NSCLC = tested on: EKVX NSCLC
HCT-15 colon = tested on: HCT-15 colon
UACC-257 melanoma = tested on: UACC-257 melanoma
HS 578T breast = tested on: HS 578T breast
U251 CNS = tested on: U251 CNS
RPMI-8226 leukemia = tested on: RPMI-8226 leukemia
SNB-75 CNS = tested on: SNB-75 CNS

For `COc1ccc(/C=N/NC(=O)c2ccc(O)c(CN(C)C)c2)cc1`, the TGI (OVCAR-3 ovarian) was greater than 100 µM, the TGI (SF-268 CNS) was greater than 100 µM and the TGI (A549 NSCLC) was greater than 100 µM. For the same compound, the TGI (CAKI-1 renal) was greater than 100 µM, the TGI (HOP-92 NSCLC) was greater than 100 µM and the TGI (SK-MEL-28 melanoma) was greater than 100 µM. It also gave a TGI (IGROV1 ovarian) greater than 100 µM, a TGI (HCC-2998 colon) greater than 100 µM and a TGI (LOX IMVI melanoma) greater than 100 µM. The TGI (M14 melanoma) was greater than 100 µM, the TGI (SK-MEL-2 melanoma) was greater than 100 µM and the TGI (TK-10 renal) was greater than 100 µM. It also gave a TGI (SF-539 CNS) greater than 100 µM, a TGI (NCI-H522 lung) of 90.3 µM and a TGI (786-0 renal) greater than 100 µM. The TGI (RXF 393 renal) was greater than 100 µM, the TGI (NCI/ADR-RES ovarian) was greater than 100 µM and the TGI (SN12C renal) was greater than 100 µM. The TGI (SR leukemia) was greater than 100 µM, the TGI (CCRF-CEM leukemia) was greater than 100 µM and the TGI (MDA-MB-435) was greater than 100 µM. For the same compound, the TGI (SW-620 colon) was greater than 100 µM, the TGI (DU-145 prostate) was greater than 100 µM and the TGI (COLO 205 colon) was greater than 100 µM. The TGI (OVCAR-5 ovarian) was greater than 100 µM, the TGI (HT29 colon) was greater than 100 µM and the TGI (UO-31 renal) was greater than 100 µM. The TGI (MDA-N) was greater than 100 µM, the TGI (NCI-H23 lung) was greater than 100 µM and the TGI (MOLT-4 leukemia) was greater than 100 µM. The TGI (KM12 colon) was greater than 100 µM, the TGI (MDA-MB-231 breast) was greater than 100 µM and the TGI (BT-549 breast) was greater than 100 µM. The TGI (NCI-H460 lung) was greater than 100 µM, the TGI (T-47D breast) was greater than 100 µM and the TGI (SF-295 CNS) was greater than 100 µM. It also gave a TGI (OVCAR-4 ovarian) greater than 100 µM, a TGI (HL-60(TB) leukemia) greater than 100 µM and a TGI (UACC-62 melanoma) greater than 100 µM. The TGI (A498 renal) was 37.4 µM, the TGI (PC-3 prostate) was greater than 100 µM and the TGI (SK-OV-3 ovarian) was greater than 100 µM. The TGI (MALME-3M melanoma) was greater than 100 µM, the TGI (ACHN renal) was greater than 100 µM and the TGI (K-562 leukemia) was greater than 100 µM. For the same compound, the TGI (OVCAR-8 ovarian) was greater than 100 µM, the TGI (SK-MEL-5 melanoma) was greater than 100 µM and the TGI (NCI-H226 lung) was greater than 100 µM. For the same compound, the TGI (HCT-116 colon) was greater than 100 µM, the TGI (SNB-19 CNS) was greater than 100 µM and the TGI (MCF7 breast) was greater than 100 µM. For the same compound, the TGI (HOP-62 NSCLC) was greater than 100 µM, the TGI (EKVX NSCLC) was greater than 100 µM and the TGI (HCT-15 colon) was greater than 100 µM. For the same compound, the TGI (UACC-257 melanoma) was greater than 100 µM, the TGI (HS 578T breast) was greater than 100 µM and the TGI (U251 CNS) was greater than 100 µM.
`Cc1ccc(/C=C2/N=C(N/N=C\C(O)C(O)C(O)C(O)CO)NC2=O)cc1` (stereo not drawn) was tested, and the TGI (OVCAR-3 ovarian) was greater than 100 µM, the TGI (SF-268 CNS) was greater than 100 µM and the TGI (A549 NSCLC) was greater than 100 µM. It also gave a TGI (CAKI-1 renal) greater than 100 µM, a TGI (HOP-92 NSCLC) greater than 100 µM and a TGI (SK-MEL-28 melanoma) greater than 100 µM. The TGI (IGROV1 ovarian) was greater than 100 µM, the TGI (HCC-2998 colon) was greater than 100 µM and the TGI (LOX IMVI melanoma) was greater than 100 µM. It also gave a TGI (M14 melanoma) greater than 100 µM, a TGI (SK-MEL-2 melanoma) greater than 100 µM and a TGI (TK-10 renal) greater than 100 µM. For the same compound, the TGI (SF-539 CNS) was greater than 100 µM, the TGI (NCI-H522 lung) was greater than 100 µM and the TGI (786-0 renal) was greater than 100 µM. For the same compound, the TGI (RXF 393 renal) was greater than 100 µM, the TGI (NCI/ADR-RES ovarian) was greater than 100 µM and the TGI (SN12C renal) was greater than 100 µM. It also gave a TGI (SR leukemia) greater than 100 µM, a TGI (CCRF-CEM leukemia) greater than 100 µM and a TGI (MDA-MB-435) greater than 100 µM. For the same compound, the TGI (SW-620 colon) was greater than 100 µM, the TGI (DU-145 prostate) was greater than 100 µM and the TGI (COLO 205 colon) was greater than 100 µM. It also gave a TGI (OVCAR-5 ovarian) greater than 100 µM, a TGI (HT29 colon) greater than 100 µM and a TGI (UO-31 renal) greater than 100 µM. For the same compound, the TGI (MDA-N) was greater than 100 µM, the TGI (NCI-H23 lung) was greater than 100 µM and the GI50 (MOLT-4 leukemia) was 70.1 µM. The TGI (MOLT-4 leukemia) was greater than 100 µM, the TGI (KM12 colon) was greater than 100 µM and the TGI (MDA-MB-231 breast) was greater than 100 µM. For the same compound, the TGI (BT-549 breast) was greater than 100 µM, the TGI (NCI-H460 lung) was greater than 100 µM and the TGI (T-47D breast) was greater than 100 µM. The TGI (SF-295 CNS) was greater than 100 µM, the GI50 (OVCAR-4 ovarian) was 85.1 µM and > 100 µM and 39.2 µM and the TGI (OVCAR-4 ovarian) was greater than 100 µM. The TGI (RPMI-8226 leukemia) was greater than 100 µM, the TGI (HL-60(TB) leukemia) was greater than 100 µM and the TGI (SNB-75 CNS) was greater than 100 µM. It also gave a TGI (A498 renal) greater than 100 µM, a TGI (PC-3 prostate) greater than 100 µM and a TGI (SK-OV-3 ovarian) greater than 100 µM. For the same compound, the TGI (MALME-3M melanoma) was greater than 100 µM, the TGI (ACHN renal) was greater than 100 µM and the GI50 (K-562 leukemia) was greater than 100 µM. It also gave a TGI (K-562 leukemia) greater than 100 µM, a TGI (OVCAR-8 ovarian) greater than 100 µM and a TGI (SK-MEL-5 melanoma) greater than 100 µM. The TGI (NCI-H226 lung) was greater than 100 µM, the TGI (HCT-116 colon) was greater than 100 µM and the TGI (SNB-19 CNS) was greater than 100 µM. For the same compound, the TGI (MCF7 breast) was greater than 100 µM, the TGI (HOP-62 NSCLC) was greater than 100 µM and the TGI (EKVX NSCLC) was greater than 100 µM. For the same compound, the TGI (HCT-15 colon) was greater than 100 µM, the TGI (UACC-257 melanoma) was greater than 100 µM and the TGI (HS 578T breast) was greater than 100 µM. It also gave a TGI (U251 CNS) greater than 100 µM.
